# What was measured:
# recombinant human PDE5 = target: T1, recombinant human PDE5 (Homo sapiens, UniProt O76074); assay: Inhibitory effect on cGMP-PDE (PDE5 IC50 determination); assay type: biochemical; details: in vitro, read-out: IC50 versus PDE5
# T1 construct: host or cells: Saccharomyces cerevisiae strain BJ2-54 (ATCC 74465)
# Procedure: The compounds of structural formula (I) were tested for an ability to inhibit PDE5. The ability of a compound to inhibit PDE5 activity is related to the IC50 value for the compound, i.e., the concentration of inhibitor required for 50% inhibition of enzyme activity. The IC50 value for compounds of structural formula (I) were determined using recombinant human PDE5.
# Phosphodiesterase activity of the preparations was determined as follows. PDE assays utilizing a charcoal separation technique were performed essentially as described in Loughney et al. (1996). In this assay, PDE activity converts [32P]cAMP or [32P]cGMP to the corresponding [32P]5′-AMP or [32P]5′-GMP in proportion to the amount of PDE activity present. The [32P]5′-AMP or [32P]5′-GMP then was quantitatively converted to free [32P]phosphate and unlabeled adenosine or guanosine by the action of snake venom 5′-nucleotidase. […] The assay was performed at 30° C. in a 100 μL reaction mixture containing (final concentrations) 40 mM Tris HCl (pH 8.0), 1 μM ZnSO4, 5 mM MgCl2, and 0.1 mg/mL bovine serum albumin (BSA). PDE enzyme was present in quantities that yield <30% total hydrolysis of substrate (linear assay conditions). The assay was initiated by addition of substrate ([…] [32P]cAMP or cGMP), and the mixture was incubated for 12 minutes. Seventy-five (75) μg of Crotalus atrox venom then was added, and the incubation was continued for 3 minutes (15 minutes total). The reaction was stopped by addition of 200 μL of activated charcoal (25 mg/mL suspension in 0.1 M NaH2PO4, pH 4). After centrifugation (750×g for 3 minutes) to sediment the charcoal, a sample of the supernatant was taken for radioactivity determination in a scintillation counter and the PDE activity was calculated.
# cGMP-PDE activity of compounds of the present invention was measured using a one-step assay adapted from Wells et al., Biochim. Biophys. Acta, 384, 430 (1975). The reaction medium contained 50 mM Tris-HCl, pH 7.5, 5 mM magnesium acetate, 250 μg/ml 5′-Nucleotidase, 1 mM EGTA, and 0.15 μM 8-[H^3]-cGMP. Unless otherwise indicated, the enzyme used was a human recombinant PDE5 (ICOS Corp., Bothell, Wash.).
# Compounds of the invention were dissolved in DMSO finally present at 2% in the assay.
Structure (SMILES),IC50 (recombinant human PDE5),melting point
"CN1CC(=O)N2[C@H](c3ccc4c(c3)OCO4)c3[nH]c4ncccc4c3C[C@@H]2C1=O (racemic) [Example 1, (+/−,cis)-10-Benzo[1,3]dioxol-5-yl-7-methyl-5,5a,7,8,10,11-hexahydro-1,7,9a,11-tetraazabeno[β]fluorene-6,9-dione]",2.3 nM,262 to 276 °C
"CN1CC(=O)N2[C@@H](c3ccc4c(c3)OCO4)c3c([nH]c4ccccc34)C[C@@H]2C1=O [Example 5(b), (5S,9aR)-5-Benzo[1,3]dioxol-5-yl-8-methyl-5,7,8,9a,10,11-hexahydro-5a,8,11-triaza-benzo[b]fluorene-8,9-dione]",125 nM,274 to 277 °C
"CN1CC(=O)N2[C@H](c3ccc4c(c3)OCO4)c3sc4ccccc4c3C[C@@H]2C1=O (racemic) [Example 4, (+/−,cis)-10-Benzo[1,3]dioxol-5-yl-7-methyl-5,7,8,10-tetrahydro-5aH-11-thia-7,9a-diazabenzo[β]fluorene-6,9-dione]",555 nM,245 to 266 °C
"CN1CC(=O)N2[C@H](c3ccc4c(c3)OCO4)c3c([nH]c4ccccc34)C[C@@H]2C1=O [Example 5(a), (5R,9aR)-5-Benzo(1,3)dioxol-5-yl-8-methyl-5,7,8,9a,10,11-hexahydro-5a,8,11-triaza-benzo[b]fluorane-8,9-dione]",338 nM,274 to 277 °C
